One test addresses JAK3 kinase (Homo sapiens (Human), UniProt P52333). The test can be described thus: Mass spectrometry for Janus-3 kinase (JAK3). It is filed as binding. Particulars: 3 hrs at 10× excess, tryptic digestion. Here is the method: Mass Spectrometry for Janus-3 Kinase (JAK3)
JAK3 kinase (33 pmols; Invitrogen) was incubated with (I-7) (327 pmols) for 3 hrs at 10× excess prior to tryptic digestion. Iodoacetamide was used as the alkylating agent after compound incubation. For tryptic digests a 5 ul aliquot (5.5 pmols) was diluted with 15 ul of 0.1% TFA prior to micro C18 Zip Tipping directly onto the MALDI target using alpha cyano-4-hydroxy cinnamic acid as the matrix (5 mg/ml in 0.1% TFA:Acetonitrile 50:50).
(§1) For tryptic digests the instrument was set in Reflectron mode with a pulsed extraction setting of 2200. Calibration was done using the Laser Biolabs Pep Mix standard ([…], 1296.69, 1672.92, 2093.09, 2465.20). For CID/PSD analysis the peptide was selected using cursors to set ion gate timing and fragmentation occurred at a laser power about 20% higher and He was used as the collision gas for CID. Calibration for fragments was done using the P14R fragmentation calibration for the Curved field Reflectron.

For test [1], the system named is BTK signaling in Ramos cells. Briefly: BTK Ramos cellular assay (phosphorylation of BTK substrate PLCγ2). It is filed as cell-based, human. Particulars: Homo sapiens, 1 hour compound, anti-IgM stimulation, read-out: BTK Inhibition (Ramos cellular). Put shortly:
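Serum-starved Ramos Burkitt lymphoma cells treated 1 h with compound at 1, 0.1, 0.01 or 0.001 μM final. B-cell receptor stimulated with 1 μg anti-human IgM F(ab′)2, 10 min on ice. Lysates (16 μg protein) immunoblotted for phospho-PLCγ2.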

A further test concerns the target BTK (Homo sapiens (Human), UniProt Q06187). The test can be described thus: Mass spectrometry for BTK (intact protein). The settings on record: 1 hr, 10× fold excess of compound. It is filed as binding. As to the method: Mass Spectrometry for BTK
Intact BTK was incubated for 1 hr at a 10× fold excess of I-7 to protein. Aliquots (2 μl) of the samples were diluted with 10 μl of 0.1% TFA prior to micro C4 ZipTipping directly onto the MALDI target using Sinapinic acid as the desorption matrix (10 mg/ml in 0.1% TFA:Acetonitrile 20:80).

The next test deals with BTK in Ramos cells (Homo sapiens (Human), UniProt Q06187). Briefly: BTK occupancy from in vitro samples by ELISA (Ramos cells). It is filed as cell-based. The settings on record: ELISA with probe I-215. The source says:
Measuring BTK Occupancy from In Vitro Samples by ELISA
In order to determine the amount of free BTK in cell or tissue lysates, an ELISA protocol was employed that utilizes a biotinylated probe compound that binds only to free, unoccupied BTK. The conjugated biotin is captured on a streptavidin-coated ELISA plate and detected with a mouse anti-BTK antibody (Becton Dickinson, Franklin Lakes, N.J., USA) and a secondary goat anti-mouse HRP antibody (Zymed, South San Francisco, Calif., USA).
All samples were prepared with equal concentrations of Biorad lysis buffer (Hercules, Calif., USA), 0.5% bovine serum albumin in PBS with 0.05% Tween-20 to give a final concentration of 1 μM I-215. Samples were incubated in a mixing plate for 1 hr at room temperature while shaking to allow probe compound I-215 to bind to free BTK. After incubation with I-215, samples were added to a washed, streptavidin-coated ELISA plate (Pierce, Rockford, Ill., USA) and incubated for 1 hr at room temperature while shaking. The plate was then washed with PBS containing 0.05% Tween-20 using an automatic plate washer. Anti-BTK antibody was prepared at 1:1000 dilution in 0.5% BSA in PBS (0.05% Tween-20) and added to the ELISA plate. The plate was incubated for 1 hr at room temperature while shaking. The plate was washed as described above and the secondary HRP antibody was prepared at 1:5000 dilution in 0.5% BSA in PBS (0.05% Tween-20). The plate was incubated and washed as described above. TMB was added to the plate, and OD650 was monitored until reaching 1 OD unit. The reaction was then stopped with addition of H2SO4. The plate was analyzed using Gen 5 software, and a 4 Parameter Logistic curve was employed to quantitate samples. Recombinant BTK (Invitrogen, Carlsbad, Calif., USA) was used for the standard curve.
A concentration designated as “A” is greater than 1 nM; a concentration designated as “B” is greater than 10 nM; and a concentration designated as “C” is greater than 50 nM.

The test system of test [2] is BTK kinase activity (PLCγ2 phosphorylation) in Ramos cells. Briefly: Washout experiment with Ramos cells. It is filed as cell-based, human. The settings on record: 100 nM compound for 1 hour, then washout. Here is the method: Washout Experiment with Ramos Cells
Ramos cells were serum starved for one hour in RPMI media+1% glutamine at 37° C. After starvation, Ramos cells were treated with 100 nM compound diluted in serum free RPMI media for 1 hour. After compound treatment, the media was removed and cells were washed with compound-free media. Subsequently, Ramos cells were washed every 2 hours and resuspended in fresh compound-free media. Cells were collected at specified timepoints, treated with 1 ug anti-human IgM (Southern Biotech cat #2022-01) for 10 minutes on ice to induce BCR signaling and then washed in PBS. Ramos cells were then lysed in Cell Extraction Buffer (Invitrogen FNN0011) supplemented with Roche complete protease inhibitor tablets (Roche 11697498001) and phosphatase inhibitors (Roche 04 906 837 001) and 18 ug total protein lysate was loaded in each lane. Inhibition of BTK kinase activity was assayed by measuring its substrate (PLCγ2) phosphorylation by western blot with phospho-specific antibodies from Cell Signaling Technologies cat #3871. The results of this experiment with compounds I-2, I-4 and I-7 are depicted in FIGS. 1, 2 and 3.

For another test, the target named is TEC kinase (Homo sapiens (Human), UniProt P42680). Briefly: Mass spectrometry for TEC kinase (tryptic digest). It is filed as binding. The settings on record: 3 hrs at 10× excess, tryptic digestion. Here is the method:
Mass Spectrometry for TEC Kinase (Compound I-2)
TEC kinase (45 pmols; Invitrogen) was incubated with (I-2) (450 pmols) for 3 hrs at 10× excess prior to tryptic digestion. Iodoacetamide was used as the alkylating agent after compound incubation. […] For tryptic digests a 5 ul aliquot (7.5 pmols) was diluted with 15 ul of 0.1% TFA prior to micro C18 Zip Tipping directly onto the MALDI target using alpha cyano-4-hydroxy cinnamic acid as the matrix (5 mg/ml in 0.1% TFA:Acetonitrile 50:50).
as §1
TEC kinase (45 pmols; Invitrogen) was incubated with (I-4) (450 pmols) for 3 hrs at 10× excess prior to tryptic digestion. Iodoacetamide was used as the alkylating agent after compound incubation. […] For tryptic digests a 5 ul aliquot (7.5 pmols) was diluted with 15 ul of 0.1% TFA prior to micro C18 Zip Tipping directly onto the MALDI target using alpha cyano-4-hydroxy cinnamic acid as the matrix (5 mg/ml in 0.1% TFA:Acetonitrile 50:50).
For tryptic digests the instrument was set in Reflectron mode with a pulsed extraction setting of 1800. Calibration was done using the Laser Biolabs Pep Mix standard ([…], 1296.69, 1672.92, 2093.09, 2465.20). For CID/PSD analysis the peptide was selected using cursors to set ion gate timing and fragmentation occurred at a laser power about 20% higher and He was used as the collision gas for CID. Calibration for fragments was done using the P14R fragmentation calibration for the Curved field Reflectron.
TEC kinase (45 pmols; Invitrogen) was incubated with […] (450 pmols) for 3 hrs at 10× excess prior to tryptic digestion. […]

14 compounds from patent US11351168B1 (Celgene CAR LLC, priority 2008, dated 2022) can be followed below.

BTK, sequence (Q06187 whole entry): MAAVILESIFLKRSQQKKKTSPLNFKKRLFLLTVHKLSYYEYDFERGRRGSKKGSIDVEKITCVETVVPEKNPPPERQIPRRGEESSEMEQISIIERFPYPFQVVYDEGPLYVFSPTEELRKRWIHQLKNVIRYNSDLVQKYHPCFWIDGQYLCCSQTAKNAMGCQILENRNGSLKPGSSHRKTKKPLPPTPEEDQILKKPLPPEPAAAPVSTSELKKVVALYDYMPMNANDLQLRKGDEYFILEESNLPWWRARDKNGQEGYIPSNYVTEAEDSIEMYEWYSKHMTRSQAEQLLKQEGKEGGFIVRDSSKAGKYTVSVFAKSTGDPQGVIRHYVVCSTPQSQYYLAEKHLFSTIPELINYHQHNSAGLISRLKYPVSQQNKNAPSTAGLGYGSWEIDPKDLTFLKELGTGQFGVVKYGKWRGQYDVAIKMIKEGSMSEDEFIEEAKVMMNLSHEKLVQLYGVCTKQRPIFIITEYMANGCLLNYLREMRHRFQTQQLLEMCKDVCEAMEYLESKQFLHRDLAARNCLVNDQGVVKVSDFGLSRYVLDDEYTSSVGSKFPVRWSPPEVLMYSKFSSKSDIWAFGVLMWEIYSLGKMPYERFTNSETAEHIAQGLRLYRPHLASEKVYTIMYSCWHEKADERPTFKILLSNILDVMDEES
BTK in Ramos cells, sequence (Q06187 whole entry): as above
TEC kinase, sequence (P42680 whole entry): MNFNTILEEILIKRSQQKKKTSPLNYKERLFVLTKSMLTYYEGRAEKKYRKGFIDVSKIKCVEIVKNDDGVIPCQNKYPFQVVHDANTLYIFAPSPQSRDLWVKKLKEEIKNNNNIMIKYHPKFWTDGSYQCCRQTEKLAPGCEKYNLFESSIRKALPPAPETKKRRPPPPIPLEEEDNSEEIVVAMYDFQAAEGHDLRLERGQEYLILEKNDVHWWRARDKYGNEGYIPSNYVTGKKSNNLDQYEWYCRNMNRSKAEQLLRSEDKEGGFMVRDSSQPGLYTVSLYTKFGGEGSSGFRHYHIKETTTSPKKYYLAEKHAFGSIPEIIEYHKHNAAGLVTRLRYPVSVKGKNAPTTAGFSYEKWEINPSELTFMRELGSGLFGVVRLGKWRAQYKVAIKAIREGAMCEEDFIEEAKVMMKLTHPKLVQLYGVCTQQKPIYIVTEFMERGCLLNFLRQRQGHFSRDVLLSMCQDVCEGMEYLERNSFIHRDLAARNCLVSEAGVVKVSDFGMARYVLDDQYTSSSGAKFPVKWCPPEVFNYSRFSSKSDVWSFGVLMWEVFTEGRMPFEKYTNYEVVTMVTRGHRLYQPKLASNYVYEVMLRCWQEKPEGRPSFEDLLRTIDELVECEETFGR
JAK3 kinase, sequence (P52333 whole entry): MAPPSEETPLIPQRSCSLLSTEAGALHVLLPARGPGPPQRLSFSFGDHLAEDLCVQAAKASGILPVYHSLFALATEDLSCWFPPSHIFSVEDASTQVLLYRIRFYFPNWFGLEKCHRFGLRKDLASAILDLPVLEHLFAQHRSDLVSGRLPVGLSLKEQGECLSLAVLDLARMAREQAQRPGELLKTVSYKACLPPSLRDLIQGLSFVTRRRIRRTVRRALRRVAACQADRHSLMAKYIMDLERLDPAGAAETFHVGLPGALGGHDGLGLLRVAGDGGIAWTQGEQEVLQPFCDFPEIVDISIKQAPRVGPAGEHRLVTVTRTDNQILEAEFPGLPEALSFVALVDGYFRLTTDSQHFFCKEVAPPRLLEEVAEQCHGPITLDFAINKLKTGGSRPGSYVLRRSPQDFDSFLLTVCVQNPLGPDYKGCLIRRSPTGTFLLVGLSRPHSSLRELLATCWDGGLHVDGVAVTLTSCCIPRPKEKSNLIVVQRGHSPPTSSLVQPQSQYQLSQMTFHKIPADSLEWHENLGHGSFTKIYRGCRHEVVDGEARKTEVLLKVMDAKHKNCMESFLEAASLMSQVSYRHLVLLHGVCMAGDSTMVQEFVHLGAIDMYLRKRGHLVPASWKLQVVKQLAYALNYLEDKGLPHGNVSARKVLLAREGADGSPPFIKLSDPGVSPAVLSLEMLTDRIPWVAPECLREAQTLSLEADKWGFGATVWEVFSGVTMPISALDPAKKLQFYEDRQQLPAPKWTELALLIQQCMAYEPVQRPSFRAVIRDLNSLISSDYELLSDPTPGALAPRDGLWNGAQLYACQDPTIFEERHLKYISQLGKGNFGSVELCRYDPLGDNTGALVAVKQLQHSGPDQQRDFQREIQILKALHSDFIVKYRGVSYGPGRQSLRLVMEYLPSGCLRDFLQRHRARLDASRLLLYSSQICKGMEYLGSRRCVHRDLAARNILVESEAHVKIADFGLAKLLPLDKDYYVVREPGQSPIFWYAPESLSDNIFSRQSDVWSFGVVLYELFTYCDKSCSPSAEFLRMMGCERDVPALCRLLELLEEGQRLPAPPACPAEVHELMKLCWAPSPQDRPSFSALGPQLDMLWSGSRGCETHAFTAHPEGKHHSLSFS

With `Cc1cnc(Nc2cccc(S(N)(=O)=O)c2)nc1Nc1ccc2c(c1)CCN(C(=O)CCl)C2` [Compound I-11, 3-(4-(2-(2-chloroacetyl)-1,2,3,4-tetrahydroisoquinolin-6-ylamino)-5-methylpyrimidin-2-ylamino)benzenesulfonamide], the “modification of JAK3 kinase by mass spectrometry” value at JAK3 kinase is listed as “measurable modification”.
In the case of `C=CC(=O)N1CCOc2ccc(Nc3ncc(F)c(Nc4cccc(Cl)c4)n3)cc21` [Compound I-149, 1-(6-(4-(3-chlorophenylamino)-5-fluoropyrimidin-2-ylamino)-2H-benzo[b][1,4]oxazin-4(3H)-yl)prop-2-en-1-one], in test [1], the IC50 is 0.01 to 0.1 µM. On BTK, the “modification of BTK by mass spectrometry” value is given as “completely modify”.
Take `C=CC(=O)Nc1cccc(Nc2nc(Nc3ccc(OCCOC)c(F)c3)ncc2F)c1` [Compound I-96, N-(3-(2-(3-fluoro-4-(2-methoxyethoxy)phenylamino)-5-fluoropyrimidin-4-ylamino)phenyl)acrylamide]: the IC50 in test [1] was less than 0.01 µM. For the same compound, at BTK, the “modification of BTK by mass spectrometry” value is “completely modify”. In addition, on BTK in Ramos cells, the “>50% occupancy (concentration)” value is reported as “A (greater than 1 nM)” and the “>90% occupancy (concentration)” value is on record as “B (greater than 10 nM)”.
As for `C=C(C#N)C(O)c1cccc(Nc2nc(Nc3ccc(OCCOC)cc3)ncc2F)c1` (centres unmarked) [Compound I-71, 2-((3-(5-fluoro-2-(4-(2-methoxyethoxy)phenylamino)pyrimidin-4-ylamino)phenyl)(hydroxy)methyl)acrylonitrile], the “modification of BTK by mass spectrometry” value on BTK is recorded as “completely modify”.
Regarding `C=CC(=O)Nc1cccc(Nc2ncc(C)c(Nc3cccc(C)c3)n2)c1` [Compound I-2, N-(3-(5-methyl-4-(m-tolylamino)pyrimidin-2-ylamino)phenyl) acrylamide], the “BTK Inhibition Type” value in test [2] was “irreversible”. Moreover, the “covalent modification of TEC kinase peptide GCLLNFLR by mass spectrometry” value on TEC kinase is recorded as “reaction was complete”.
Regarding `CC(C)=CC(=O)c1cccc(Nc2nc(Nc3cccc(OCCN(C)C)c3)ncc2F)c1` [Compound I-207], the IC50 in test [1] lay within 0.1 to 1 µM. Besides, on BTK, the “modification of BTK by mass spectrometry” value is “completely modify”.
In the same order, the values of `C=CC(=O)Nc1cccc(Nc2nc(Nc3cccc(OC(F)(F)F)c3)ncc2F)c1` [Compound I-244, N-(3-(5-fluoro-2-(3-(trifluoromethoxy)phenylamino)pyrimidin-4-ylamino)phenyl)acrylamide] are 0.01 to 0.1 µM and “completely modify”.
Take `C=C(C#N)C(O)c1ccc(Nc2nc(Nc3ccccc3)ncc2F)cc1` (centres unmarked) [Compound I-161, 2-((4-(5-fluoro-2-(phenylamino)pyrimidin-4-ylamino)phenyl)(hydroxy)methyl)acrylonitrile]: at BTK, the “modification of BTK by mass spectrometry” value is reported as “completely modify”.
Still for that read-out and setting: to `C=CC(=O)Nc1cccc(Nc2nc(Nc3ccc(OCCOC)cc3)ncc2F)c1` [Compound I-182, N-(3-(5-fluoro-2-(4-(2-methoxyethoxy)phenylamino)pyrimidin-4-ylamino)phenyl)acrylamide] belongs “completely modify”.
For `C=CC(=O)N(C)Cc1ccc(Nc2nc(Nc3ccccc3)ncc2C)cc1` [Compound I-219, N-methyl-N-(4-(5-methyl-2-(phenylamino)pyrimidin-4-ylamino)benzyl)acrylamide], the IC50 in test [1] is 0.01 to 0.1 µM. Further, at BTK, the “modification of BTK by mass spectrometry” value is “completely modify”.
In the case of `Cc1cccc(Nc2nc(Nc3cccc(NC(=O)/C=C/CN(C)C)c3)ncc2F)c1` [Compound I-4, (E)-4-(dimethylamino)-N-(3-(5-fluoro-4-(m-tolylamino)pyrimidin-2-ylamino)phenyl)but-2-enamide], the IC50 in test [1] was 0.01 to 0.1 µM. The “BTK Inhibition Type” value in test [2] is reported as “irreversible”. Besides, the “covalent modification of TEC kinase peptide GCLLNFLR by mass spectrometry” value at TEC kinase is on record as “reaction was complete”.
Consider `C=CC(=O)Nc1cccc(Oc2nc(Nc3ccccc3)ncc2F)c1` [Compound I-228, N-(3-(5-fluoro-2-(phenylamino)pyrimidin-4-yloxy)phenyl)acrylamide], for which the IC50 in test [1] was less than 0.01 µM. Further, in test [2], the “BTK Inhibition Type” value was “irreversible”.
Regarding `C=CC(=O)N1CCC[C@@H](Nc2nc(Nc3cccc(OC)c3)ncc2F)C1` [Compound I-195, (R)-1-(3-(5-fluoro-2-(3-methoxyphenylamino)pyrimidin-4-ylamino)piperidin-1-yl)prop-2-en-1-one], the IC50 in test [1] lay in the range of 0.01 to 0.1 µM. On BTK, the “modification of BTK by mass spectrometry” value is “completely modify”.
“2-((4-(5-fluoro-2-(3-trifluoromethoxyphenylamino)pyrimidin-4-ylamino)phenyl)(hydroxy)methyl)acrylonitrile [Compound I-163]”: the “modification of BTK by mass spectrometry” value at BTK is reported as “completely modify”.
